From PubChem BioAssay (NCI)
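The compound was tested at five concentrations on cells cultured in 96-well plates, with a 48-hour exposure period. GI50: concentration for 50% inhibition of growth. TGI denotes the concentration required for complete inhibition of growth.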

How the values were obtained:
Experiment in all cases: NCI-60 cell line screen, 48 h
CCRF-CEM leukemia = system: CCRF-CEM leukemia
COLO 205 colon = system: COLO 205 colon
BT-549 breast = system: BT-549 breast
UO-31 renal = system: UO-31 renal
SK-MEL-5 melanoma = system: SK-MEL-5 melanoma
786-0 renal = system: 786-0 renal
SF-295 CNS = system: SF-295 CNS
K-562 leukemia = system: K-562 leukemia
MALME-3M melanoma = system: MALME-3M melanoma
MDA-MB-435 = system: MDA-MB-435

SMILES	GI50 (CCRF-CEM leukemia)	TGI (CCRF-CEM leukemia)	GI50 (COLO 205 colon)	TGI (COLO 205 colon)	GI50 (BT-549 breast)	TGI (BT-549 breast)	GI50 (UO-31 renal)	TGI (UO-31 renal)	GI50 (SK-MEL-5 melanoma)	TGI (SK-MEL-5 melanoma)	GI50 (786-0 renal)	TGI (786-0 renal)	GI50 (SF-295 CNS)	TGI (SF-295 CNS)	GI50 (K-562 leukemia)	TGI (K-562 leukemia)	GI50 (MALME-3M melanoma)	TGI (MALME-3M melanoma)	GI50 (MDA-MB-435)	TGI (MDA-MB-435)
Cc1ccc2c(N)c(C(=O)N[C@H]3CCc4cc(N5CC6CCC(C5)N6)ccc4C3)sc2n1	0.228 µM	> 33 µM	0.383 µM	1.49 µM	0.927 µM	3.06 µM	0.577 µM	3.24 µM	0.569 µM	1.9 µM	0.497 µM	3.86 µM	0.509 µM	2.59 µM	0.203 µM	18 µM	0.441 µM	2.04 µM	0.359 µM	2.34 µM
O=C1c2ccccc2-c2c1c1ccccc1c(=O)n2CCCN1CCOCC1	> 38.4 µM	> 100 µM	> 100 µM	> 100 µM	8 µM	25.5 µM	17.1 µM	> 100 µM	12.3 µM	> 95 µM	3.94 µM	18.5 µM	6.72 µM	20.6 µM	> 100 µM	> 100 µM	9.43 µM	45.1 µM	> 100 µM	> 100 µM
O=[N+]([O-])/C=C/c1c[nH]c2ccccc12	15.8 µM	> 100 µM	15.6 µM	30.6 µM	14.1 µM	27.5 µM	13.4 µM	27.2 µM	16 µM	32.1 µM	13.5 µM	27.2 µM	14 µM	30.6 µM	21.7 µM	61 µM	19 µM	35.7 µM	2.15 µM	5.06 µM
Cc1cc2c(F)c(Oc3ncnn4cc(OC[C@@H](C)OC(=O)[C@H](C)N)c(C)c34)ccc2[nH]1	5.96 µM	23.1 µM	10.7 µM	25.1 µM	8.43 µM	22 µM	7.58 µM	21.4 µM	3.26 µM	15.1 µM	12 µM	26.9 µM	7.87 µM	21.3 µM	3.83 µM	20.2 µM	11.7 µM	24.9 µM	11.3 µM	23.8 µM
C[N+](C)(CCCCCC[N+](C)(C)CCCN1C(=O)c2cc3ccccc3cc2C1=O)CCCN1C(=O)c2ccccc2C1=O	> 37.5 µM	> 37.5 µM	> 37.5 µM	> 37.5 µM	> 37.5 µM	> 37.5 µM	> 37.5 µM	> 37.5 µM	> 37.5 µM	> 37.5 µM	> 37.5 µM	> 37.5 µM	> 37.5 µM	> 37.5 µM	> 37.5 µM	> 37.5 µM	> 37.5 µM	> 37.5 µM	> 37.5 µM	> 37.5 µM
CN(C)CCCNC(=O)c1cc(NC(=O)c2cc(NC(=O)c3cc(NC(=O)CCc4c[nH]c5ccccc45)cn3C)cn2C)cn1C	> 100 µM	> 100 µM	> 100 µM	> 100 µM	> 100 µM	> 100 µM	> 100 µM	> 100 µM	> 100 µM	> 100 µM	> 100 µM	> 100 µM	> 100 µM	> 100 µM	> 100 µM	> 100 µM	30.4 µM	88.7 µM	> 100 µM	> 100 µM
